# Assay results: patent US7879887B2, “α-amino acid derivatives and medicaments containing the same as an active ingredient” (Nissan Chemical Industries, Ltd., priority 2006, dated 2011)
# Tests used:
# Assay type in all cases: biochemical
# recombinant human βARK1 = target: T1, recombinant human βARK1 (Homo sapiens, UniProt P25098); assay: Inhibitory activity against βARK1 (33P phosphorylation of synthetic peptide); details: recombinant human βARK1, 60 minutes at room temperature
# T1 construct: made in house; host or cells: Sf-9 insect cells (baculovirus, pBacPAK8)
# T1 sequence (P25098 1-689): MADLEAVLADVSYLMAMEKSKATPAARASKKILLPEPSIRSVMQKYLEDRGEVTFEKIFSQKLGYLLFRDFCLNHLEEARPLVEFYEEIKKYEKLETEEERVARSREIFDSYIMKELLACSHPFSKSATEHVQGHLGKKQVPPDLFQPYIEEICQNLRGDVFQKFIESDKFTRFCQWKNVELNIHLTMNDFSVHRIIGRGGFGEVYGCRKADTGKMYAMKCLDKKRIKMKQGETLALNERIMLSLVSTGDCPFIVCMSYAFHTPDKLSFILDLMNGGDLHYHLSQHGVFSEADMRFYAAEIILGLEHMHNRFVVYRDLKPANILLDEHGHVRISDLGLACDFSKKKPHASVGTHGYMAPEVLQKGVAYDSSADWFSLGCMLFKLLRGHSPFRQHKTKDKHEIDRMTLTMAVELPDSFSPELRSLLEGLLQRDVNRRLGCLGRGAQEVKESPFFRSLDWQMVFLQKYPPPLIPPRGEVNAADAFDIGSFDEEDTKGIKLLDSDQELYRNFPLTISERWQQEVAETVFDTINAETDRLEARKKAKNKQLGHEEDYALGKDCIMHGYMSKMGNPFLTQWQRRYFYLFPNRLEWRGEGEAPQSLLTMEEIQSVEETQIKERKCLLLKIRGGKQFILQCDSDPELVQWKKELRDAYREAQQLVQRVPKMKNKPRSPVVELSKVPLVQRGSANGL
# Method: Human βARK1 was amplified by PCR based on the base sequence of human βARK1 mRNA registered in GenBank (Accession No. M80776) using a human leukocyte cDNA library (Gibco BRL Cat. No. 10421-022) as a template. The amplified cDNA fragment was inserted into a pBacPAK8 vector (Clontech) to construct a plasmid.
# Recombinant human βARK1 was expressed using the BacPAK Baculovirus Expression System (Clontech, Cat. No. K1601-1). 1×10^6 Sf-9 cells were adhered to a 35 mm dish in 2.5 mL of TMN-FH Insect Medium containing 10 vol % FBS (Pharminogen, Cat. No. PM-21227M) and cultured overnight at 27° C. On the following day, the medium was removed and 500 ng of the above plasmid, BacPAK6 viral DNA cleaved with Bsu36I (5 μL) and 1.5 mL of the same medium mixed with 4 μL of Bacfectin were added followed by culturing for 5 hours, further adding 1.5 mL of medium and subsequently culturing for 5 days. […] The culture supernatant after 5 days was recovered and a plaque assay was carried out to isolate single plaques. These were then infected into Sf-9 cells and the resulting culture supernatant was designated as Passage 1 (1−3×10^11 pfu/mL). Passage 1 was added to 3×10^7 Sf-9 cells to a multiplicity of infection (MOI) of 0.1 (pfu/cell), suspension culturing was carried out for 5 days using a spinner flask, and the resulting culture supernatant was designated as Passage 2 (4×10^10 pfu/mL) and used as a viral liquid for large-volume expression.
# Sf-9 cells at 3×10^9 cells/200 mL were infected by adding Passage 2 to an MOI of 100 followed by addition of medium to bring to a liquid volume of 2 L and further culturing for 3 days. After recovering the cells by centrifugation and washing three times with PBS, the cells were suspended in 100 mL of Lysis Buffer (20 mmol/L HEPES-HCl (pH 7.2), 5 mmol/L EDTA, 3 mmol/L phenylmethylsulfonyl fluoride (PMSF)). After lysing the cells by ultrasonic treatment at low temperature, the supernatant was recovered by centrifuging (45,000×g, 15 minutes) (sup1). NaCl was added to the resulting supernatant to a final concentration of 250 mmol/L followed by ultracentrifugation (300,000×g, 60 minutes) and using the subsequent supernatant as a crude cell extract (sup2).
# Purification was carried out with reference to the literature (Benovic, J. L., Methods Enzymol. 1991; 200: 351-362; Kim, C. M. et al., Receptor 1993; 3: 39-55; Sohlemann, P. et al., FEBS Letters 1993; 324: 59-62). The crude cell extract was accurately brought to a volume of 400 mL with Buffer C (20 mmol/L HEPES-HCl (pH 7.2), 5 mmol/L EDTA, 0.02 vol % Triton X-100) followed by loading onto a 50 mL SP-Sepharose FF (Amersham Pharmacia Biotech) column equilibrated with Buffer C. […] ETA was carried out on each fraction using anti-GRK2 antibody (Santa-Cruz Cat. No. SC-562) and the positive fractions were collected (GRK2=βARK1). This was then diluted three-fold with Buffer C and loaded on a 5 mL HiTrap Heparin column (Amersham Pharmacia Biotech) column equilibrated with Buffer C. After washing the column with Wash Buffer (100 mmol/L NaCl, Buffer C), the column was eluted with an NaCl concentration gradient (100 to 600 mmol/L NaCl for 100 minutes, flow rate: 1 mL/min). The positive fractions as determined by ETA were collected and stored in a freezer at −80° C.
# A synthetic peptide having an amino acid sequence of biotinated-[…] was used in accordance with a previous report (Chen, C. Y. et al., J. Biol. Chem. 1993; 268: 7825-7831). This synthetic peptide can also be synthesized with reference to known synthesis methods (for example, Chen, C. Y. et al., J. Biol. Chem. 1993; 268: 7825-7831, Biochemistry 1991; 30: 5118-5125). 2 μl of a DMSO solution in which the test compound was diluted to as to be […] the final concentration was dispensed into a 96-well plate (round bottom) (Falcon 351190) (final concentration: 4 vol % DMSO). […]
# CDK3/Cyclin E complex = target: T2, CDK3/Cyclin E complex (Homo sapiens, UniProt Q00526); assay: In vitro kinase assay, CDK3/Cyclin E complex; details: recombinant protein (Upstate); read-out: CDK3/cyclinE IC50
# T2 construct: purchased Upstate Inc. 14-487
# T2 sequence (Q00526 whole entry): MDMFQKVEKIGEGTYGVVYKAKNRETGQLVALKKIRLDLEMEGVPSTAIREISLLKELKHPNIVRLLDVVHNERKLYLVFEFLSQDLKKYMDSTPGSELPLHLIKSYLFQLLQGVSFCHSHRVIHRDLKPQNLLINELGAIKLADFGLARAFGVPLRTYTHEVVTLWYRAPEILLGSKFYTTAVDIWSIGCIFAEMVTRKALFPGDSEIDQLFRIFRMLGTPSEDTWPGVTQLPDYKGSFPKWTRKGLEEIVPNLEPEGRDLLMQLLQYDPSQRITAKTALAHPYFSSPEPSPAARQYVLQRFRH
# T2 sequence (P24864 whole entry partner): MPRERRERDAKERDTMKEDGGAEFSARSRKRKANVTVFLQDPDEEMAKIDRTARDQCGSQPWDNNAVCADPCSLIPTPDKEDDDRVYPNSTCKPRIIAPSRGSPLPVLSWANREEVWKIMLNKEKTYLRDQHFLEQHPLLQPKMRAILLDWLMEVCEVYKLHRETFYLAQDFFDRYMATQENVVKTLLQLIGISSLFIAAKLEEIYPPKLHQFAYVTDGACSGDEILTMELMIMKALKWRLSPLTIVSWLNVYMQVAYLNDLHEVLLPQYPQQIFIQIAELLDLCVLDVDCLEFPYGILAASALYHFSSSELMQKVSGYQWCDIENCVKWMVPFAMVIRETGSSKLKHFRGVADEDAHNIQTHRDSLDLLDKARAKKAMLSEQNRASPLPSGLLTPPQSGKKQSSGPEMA
# Method: (§1) Inhibitory activity against Aurora A, CDK1/Cyclin B complex, CDK2/Cyclin E complex and CDK3/Cyclin E complex were measured by in vitro kinase assay using recombinant proteins.
# CDK2/Cyclin E complex = CDK2/Cyclin E complex (Homo sapiens, UniProt P24941); assay: In vitro kinase assay, CDK2/Cyclin E complex; details: recombinant protein (Upstate); read-out: CDK2/cyclinE IC50
# Method: as §1
SMILES,IC50 (recombinant human βARK1) [nM],IC50 (CDK3/Cyclin E complex) [nM],IC50 (CDK2/Cyclin E complex) [nM]
O=C(CNc1ccc(Cl)c(O)c1)Nc1nc2ccc3[nH]ncc3c2s1 [compound 6],4,28,26
CC(=O)Nc1cc(NCC(=O)Nc2nc3ccc4[nH]ncc4c3s2)ccc1Cl [compound 16],8.3,50,37
CC(C)(Nc1cccc(O)c1)C(=O)Nc1nc2ccc3[nH]ncc3c2s1 [compound 33],7.8,33,33
CC(C)(Nc1ccc(Cl)cc1)C(=O)Nc1nc2ccc3[nH]ncc3c2s1 [compound 35],8.8,80,45
CC(=O)Nc1cc(NC(C)(C)C(=O)Nc2nc3c(C(F)(F)F)cc4[nH]ncc4c3s2)ccc1Cl [compound 53],2,45,51
CNC(=O)c1cc(NC(C)(C)C(=O)Nc2nc3c(C(F)(F)F)cc4[nH]ncc4c3s2)ccc1Cl [compound 55],6.3,23,44
CCNC(=O)c1cc(NC(C)(C)C(=O)Nc2nc3c(C(F)(F)F)cc4[nH]ncc4c3s2)ccc1F [compound 58],6.4,47,107
CCNC(=O)c1cc(NC(C)(C)C(=O)Nc2nc3c(C(F)(F)F)cc4[nH]ncc4c3s2)ccc1Cl [compound 60],4.5,16,37
CC(C)(Nc1ccc(Cl)c(C(=O)NC2CC2)c1)C(=O)Nc1nc2c(C(F)(F)F)cc3[nH]ncc3c2s1 [compound 75],8.8,41,131
CC(=O)Nc1cc(NC(C)(C)C(=O)Nc2nc3c(C(F)(F)F)cc4[nH]ncc4c3s2)ccc1F [compound 81],8.3,55,93
CC(C)(Nc1cccc(S(N)(=O)=O)c1)C(=O)Nc1nc2c(C(F)(F)F)cc3[nH]ncc3c2s1 [compound 82],9.3,5.9,15
CC(C)(Nc1ccc(Cl)c(C(=O)NCC(N)=O)c1)C(=O)Nc1nc2c(C(F)(F)F)cc3[nH]ncc3c2s1 [compound 85],9.9,0.6,2.4
CC(C)(Nc1ccc(Cl)c(O)c1)C(=O)Nc1nc2c(C(F)(F)F)cc3[nH]ncc3c2s1 [compound 95],8.7,22,23
O=C(Nc1nc2ccc3[nH]ncc3c2s1)C1(Nc2ccc(Cl)cc2)CC1 [compound 117],3.9,44,19
CCOC(=O)c1cc(NC2(C(=O)Nc3nc4ccc5[nH]ncc5c4s3)CC2)ccc1Cl [compound 118],8.7,169,116
CC(=O)Nc1cc(NC2(C(=O)Nc3nc4ccc5[nH]ncc5c4s3)CC2)ccc1F [compound 120],3.7,105,64
CCC(=O)Nc1cc(NC2(C(=O)Nc3nc4ccc5[nH]ncc5c4s3)CC2)ccc1F [compound 121],4.6,125,110
CNC(=O)c1cc(NC2(C(=O)Nc3nc4ccc5[nH]ncc5c4s3)CC2)ccc1Cl [compound 126],7.5,38,39
CC(=O)Nc1cc(NC(C)(C)C(=O)Nc2nc3ccc4[nH]ncc4c3s2)ccc1Cl [compound 128],2.8,61,28
CCC(=O)Nc1cc(NC(C)(C)C(=O)Nc2nc3ccc4[nH]ncc4c3s2)ccc1Cl [compound 129],3.9,103,86
O=C(Nc1nc2ccc3[nH]ncc3c2s1)C(CO)Nc1ccc(Cl)cc1 (stereo not drawn) [compound 132],7.7,29,20
CC(C)(Nc1ccc(Cl)c(C(N)=O)c1)C(=O)Nc1nc2c(C(F)(F)F)cc3[nH]ncc3c2s1 [compound 135],3.2,23,52
CC(C)(Nc1ccc(Cl)c(C(=O)NCCCC(=O)O)c1)C(=O)Nc1nc2c(C(F)(F)F)cc3[nH]ncc3c2s1 [compound 144],7.7,180,249
